This note sets out measurements from patent US20240400542A1 (University of Virginia Patent Foundation, priority 2021, published 2024).

Structures are written as SMILES.

Test in all cases: SILAC competitive chemical proteomic assay (TH211 probe, LC-MS/MS)
Common to all, as to assay type: cell-based

For experiment [1], the target named is T1, 14-3-3 protein epsilon (Homo sapiens, UniProt P62258).
T1 construct: endogenous in cells; host or cells: HEK293T
T1 sequence (P62258 1-255): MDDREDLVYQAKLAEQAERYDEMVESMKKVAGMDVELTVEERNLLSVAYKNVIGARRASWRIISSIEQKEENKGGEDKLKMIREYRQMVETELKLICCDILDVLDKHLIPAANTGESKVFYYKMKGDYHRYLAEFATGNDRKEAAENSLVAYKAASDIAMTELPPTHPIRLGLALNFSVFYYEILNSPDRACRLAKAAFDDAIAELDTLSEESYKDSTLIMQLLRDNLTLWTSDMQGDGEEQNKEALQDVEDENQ
The following applies: TH207 inhibitor; HEK293T soluble fraction; P62258.1 lysine 215. Here is the method: (§1) The light and heavy proteomes (2.3 mg/mL, 432 μL) prepared from HEK293T cells that were pretreated in situ with vehicle (DMSO) or the inhibitor (2 μM), respectively, at 37° C. for 1 hr followed by probe TH211 treatment (50 μM) for 2 h, were directly were subjected to click reaction with the desthiobiotin-PEG3-azide (10 mM in DMSO, 10 μL, final concentration 200 μM) in the presence of TCEP (50 mM, 10 μL), TBTA (1.7 mM, 33 μL) and CuSO4 (50 mM, 10 μL) at room temperature for 1 hr. The light and the heavy samples were mixed in the chloroform-methanol extraction step. The subsequent steps including reduction with dithiothreitol, alkylation with iodoacetamide, digestion with Trypsin/Lys-C, enrichment with avidin beads were conducted as previously described^26.

Experiment [2] addresses T2, Coronin-1C (Homo sapiens, UniProt Q9ULV4).
T2 construct: endogenous in cells; host or cells: HEK293T
As to conditions: TH207 inhibitor; HEK293T soluble fraction; Q9ULV4.1 tyrosine 301. The procedure: as §1

For experiment [3], the target named is T3, Cytochrome c (Homo sapiens, UniProt P99999).
T3 construct: endogenous in cells; host or cells: HEK293T
T3 sequence (P99999 whole entry): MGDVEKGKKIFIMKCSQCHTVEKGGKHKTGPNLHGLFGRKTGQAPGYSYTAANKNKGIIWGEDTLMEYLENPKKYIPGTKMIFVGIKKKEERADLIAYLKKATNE
As to conditions: TH207 inhibitor, HEK293T soluble fraction. Here is the method: as §1

Experiment [4] deals with T4, Inosine-5′-monophosphate dehydrogenase 2 (Homo sapiens, UniProt P12268).
T4 construct: endogenous in cells; host or cells: HEK293T
T4 sequence (P12268 2-514 limits assumed): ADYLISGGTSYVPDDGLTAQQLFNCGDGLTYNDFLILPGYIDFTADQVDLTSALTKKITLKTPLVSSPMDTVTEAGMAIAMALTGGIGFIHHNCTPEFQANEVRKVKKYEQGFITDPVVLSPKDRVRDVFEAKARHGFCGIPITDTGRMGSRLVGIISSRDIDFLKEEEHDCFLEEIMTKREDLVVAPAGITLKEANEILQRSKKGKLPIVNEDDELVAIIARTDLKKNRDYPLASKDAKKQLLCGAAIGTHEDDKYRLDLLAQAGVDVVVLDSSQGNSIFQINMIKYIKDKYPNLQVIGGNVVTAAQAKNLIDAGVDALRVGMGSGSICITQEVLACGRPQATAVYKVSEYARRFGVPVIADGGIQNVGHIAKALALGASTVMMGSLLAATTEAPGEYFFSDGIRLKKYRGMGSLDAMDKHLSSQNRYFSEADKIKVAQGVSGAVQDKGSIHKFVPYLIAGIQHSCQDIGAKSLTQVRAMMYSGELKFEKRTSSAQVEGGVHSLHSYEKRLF
As to conditions: TH207 inhibitor; HEK293T soluble fraction; P12268.2 tyrosine 509. Here is the method:
as §1

Experiment [5] deals with Major capsid protein VP1. As to conditions: TH207 inhibitor; HEK293T soluble fraction; Q98WD1 lysine 235. Here is the method:
as §1

Experiment [6] has as its target T5, Perilipin-2 (Homo sapiens, UniProt Q99541).
T5 construct: endogenous in cells; host or cells: HEK293T
T5 sequence (Q99541 1-437): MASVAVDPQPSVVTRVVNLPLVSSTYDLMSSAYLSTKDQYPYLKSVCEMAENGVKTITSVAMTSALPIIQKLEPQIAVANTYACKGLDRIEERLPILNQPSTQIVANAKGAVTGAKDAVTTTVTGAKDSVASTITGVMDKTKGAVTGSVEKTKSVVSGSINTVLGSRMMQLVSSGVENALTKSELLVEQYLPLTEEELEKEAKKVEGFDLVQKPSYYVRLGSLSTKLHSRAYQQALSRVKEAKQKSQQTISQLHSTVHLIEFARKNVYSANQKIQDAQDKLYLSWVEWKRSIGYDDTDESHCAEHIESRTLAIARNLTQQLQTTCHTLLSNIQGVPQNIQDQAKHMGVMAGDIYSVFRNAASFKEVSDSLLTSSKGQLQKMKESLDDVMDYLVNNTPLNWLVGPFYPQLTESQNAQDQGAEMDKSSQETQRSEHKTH
The following applies: TH207 inhibitor; HEK293T soluble fraction; Q99541.2 tyrosine 190. Here is the method:
as §1

The target of experiment [7] is T6, Phosphatidylinositol transfer protein beta isoform (Homo sapiens, UniProt P48739).
T6 construct: endogenous in cells; host or cells: HEK293T
T6 sequence (P48739 1-271): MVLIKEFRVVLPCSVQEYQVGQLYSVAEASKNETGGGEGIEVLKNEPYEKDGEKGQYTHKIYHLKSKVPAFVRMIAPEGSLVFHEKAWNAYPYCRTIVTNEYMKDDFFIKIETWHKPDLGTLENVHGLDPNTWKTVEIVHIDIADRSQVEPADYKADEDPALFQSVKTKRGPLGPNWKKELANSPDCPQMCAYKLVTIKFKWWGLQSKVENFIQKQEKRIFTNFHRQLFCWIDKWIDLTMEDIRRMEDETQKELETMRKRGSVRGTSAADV
The following applies: TH207 inhibitor, HEK293T soluble fraction. Here is the method: as §1

Experiment [8] deals with T7, Phosphotyrosine protein phosphatase (Homo sapiens, UniProt P24666).
T7 construct: endogenous in cells; host or cells: HEK293T
T7 sequence (P24666 1-158): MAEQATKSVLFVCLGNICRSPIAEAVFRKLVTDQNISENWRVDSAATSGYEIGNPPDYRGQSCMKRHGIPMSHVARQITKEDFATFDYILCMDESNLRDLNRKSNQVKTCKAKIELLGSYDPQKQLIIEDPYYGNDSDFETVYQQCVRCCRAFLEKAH
The following applies: TH207 inhibitor; HEK293T soluble fraction; P24666.3 tyrosine 132. Here is the method:
as §1

Experiment [9] has as its target T8, Sorting nexin-6 (Homo sapiens, UniProt Q9UNH7).
T8 construct: endogenous in cells; host or cells: HEK293T
T8 sequence (Q9UNH7 1-406): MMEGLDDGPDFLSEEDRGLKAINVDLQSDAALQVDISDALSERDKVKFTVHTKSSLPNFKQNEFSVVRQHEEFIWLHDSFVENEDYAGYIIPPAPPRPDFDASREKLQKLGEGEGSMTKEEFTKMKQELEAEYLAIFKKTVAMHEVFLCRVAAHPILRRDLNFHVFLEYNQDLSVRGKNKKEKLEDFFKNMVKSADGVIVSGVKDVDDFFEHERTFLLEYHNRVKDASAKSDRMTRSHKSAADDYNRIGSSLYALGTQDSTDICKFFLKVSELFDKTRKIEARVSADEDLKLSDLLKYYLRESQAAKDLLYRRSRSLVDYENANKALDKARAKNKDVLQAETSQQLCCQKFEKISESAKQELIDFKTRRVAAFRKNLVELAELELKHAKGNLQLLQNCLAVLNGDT
As to conditions: TH207 inhibitor; HEK293T soluble fraction; Q9UNH7.1 lysine 204. Here is the method:
as §1

The target in experiment [10] is T9, dCTP pyrophosphatase 1 (Homo sapiens, UniProt Q9H773).
T9 construct: endogenous in cells; host or cells: HEK293T
T9 sequence (Q9H773 1-170): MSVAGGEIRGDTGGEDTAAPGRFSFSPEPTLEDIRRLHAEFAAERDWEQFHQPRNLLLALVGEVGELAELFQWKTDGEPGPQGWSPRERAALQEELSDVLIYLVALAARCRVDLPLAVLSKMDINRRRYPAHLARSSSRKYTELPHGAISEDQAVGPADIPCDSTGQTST
As to conditions: TH207 inhibitor; HEK293T soluble fraction; Q9H773.1 tyrosine 129. Here is the method: as §1

T2 sequence (Q9ULV4 whole entry): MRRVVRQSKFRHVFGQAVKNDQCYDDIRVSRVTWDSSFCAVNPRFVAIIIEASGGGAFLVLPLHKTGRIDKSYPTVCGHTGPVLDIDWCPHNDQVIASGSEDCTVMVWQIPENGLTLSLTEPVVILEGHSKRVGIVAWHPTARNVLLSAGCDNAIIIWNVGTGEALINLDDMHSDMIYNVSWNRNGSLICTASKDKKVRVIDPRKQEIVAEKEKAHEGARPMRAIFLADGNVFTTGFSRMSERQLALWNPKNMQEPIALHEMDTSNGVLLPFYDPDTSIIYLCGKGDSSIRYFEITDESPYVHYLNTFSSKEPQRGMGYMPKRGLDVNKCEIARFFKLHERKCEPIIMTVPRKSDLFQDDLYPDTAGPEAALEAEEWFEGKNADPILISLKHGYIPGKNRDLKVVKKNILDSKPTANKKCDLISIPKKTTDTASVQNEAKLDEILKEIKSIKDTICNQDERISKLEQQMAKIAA

As to `Cc1ccc(S(=O)(=O)n2cc(CCN3CCC(=C(c4ccc(F)cc4)c4ccc(F)cc4)CC3)nn2)cc1` [TH207, 4-(Bis(4-fluorophenyl)methylene)-1-(2-(1-tosyl-1H-1,2,3-triazol-4-yl)ethyl)piperidine], the “Normalized SILAC ratio (SR), 14-3-3 protein epsilon K215” value in [1] was determined as 3.7. Further, in [2], the “Normalized SILAC ratio (SR), Coronin-1C Y301” value is on record as 20. In experiment [3] (P99999.2 lysine 28), the “Normalized SILAC ratio (SR), Cytochrome c K28” value was determined as 1.4. Besides, the “Normalized SILAC ratio (SR), Cytochrome c K40” value in experiment [3] (P99999.2 lysine 40) is on record as 1.5. In addition, in [3] (P99999.2 lysine 54), the “Normalized SILAC ratio (SR), Cytochrome c K54” value was found to be 1.8. Also, the “Normalized SILAC ratio (SR), Cytochrome c Y49” value in experiment [3] (P99999.2 tyrosine 49) was determined as 1.5. In [4], the “Normalized SILAC ratio (SR), Inosine-5′-monophosphate dehydrogenase 2 Y509” value worked out at 1.6. Further, the “Normalized SILAC ratio (SR), Major capsid protein VP1 K235” value in experiment [5] is given as 1.3. The “Normalized SILAC ratio (SR), Perilipin-2 Y190” value in experiment [6] came to 3.5. Further, the “Normalized SILAC ratio (SR), Phosphatidylinositol transfer protein beta isoform K155” value in [7] (P48739.2 lysine 155) came out at 1.8. The “Normalized SILAC ratio (SR), Phosphatidylinositol transfer protein beta isoform Y154” value in [7] (P48739.2 tyrosine 154) is listed as 1.8. In addition, in [8], the “Normalized SILAC ratio (SR), Phosphotyrosine protein phosphatase Y132” value was found to be 1.9. Besides, the “Normalized SILAC ratio (SR), Sorting nexin-6 K204” value in experiment [9] is recorded as 6.9. For the same molecule, the “Normalized SILAC ratio (SR), dCTP pyrophosphatase 1 Y129” value in experiment [10] is recorded as 3.
